The source of these data is patent US3966951A, “Esters of quinoxaline-1,4-dioxides” (Pfizer Inc., priority 1975, dated 1976).

For one data set, the system named is Past. mult 59A004. Nature of the data set: in vitro MIC, Inocula Replicating Device, anaerobic Gas Pac, BHI agar. Type of data set: cell-based. Conditions: unit assumed.
Another data set has as its system Sal. dublin 58U001. The data set is described as above. Conditions: unit assumed. It counts as cell-based.
In the next data set the test system is Strep. pyogen 02C203. The description is as above. Type of data set: cell-based. To be noted: unit assumed.
Another data set deals with Sal. cholsu 58B242. The data set is described as above. It counts as cell-based. To be noted: unit assumed.
A further data set deals with E. Coli 51A-266. The description is as above. It counts as cell-based. Conditions: unit assumed.
For another data set, the system named is Strep. zoo 02-H001. The data set is described as above. Type of data set: cell-based. Conditions: unit assumed.
A further data set concerns Staph. aureus 01A106. The description is as above. Conditions: unit assumed. Type of data set: cell-based.
A further data set relates to Staph. aureus 01A005. Described as above. It counts as cell-based. Conditions: unit assumed.
A further data set has as its system E. Coli 51A-218. The data set is described as above. To be noted: unit assumed. It counts as cell-based.
In another data set the test system is Sal. typhim 58D011. The data set is described as above. Conditions: unit assumed. Type of data set: cell-based.
Another data set has as its system Aer. hydro 72B001. Described as above. Type of data set: cell-based. To be noted: unit assumed.
A further data set has as its system Past. mult 59A006. Described as above. Type of data set: cell-based. To be noted: unit assumed.
A further data set has as its system Strep. equi 021001. The description is as above. Type of data set: cell-based. To be noted: unit assumed.
The test system of a further data set is Sal. cholsu. 58B242. Nature of the data set: acute systemic infection in mice, PD50. It counts as in vivo. To be noted: Mus musculus, 0.5, 4 and 24 h after inoculation, ± is 95% confidence. How it is done: (§1) Acute systemic infections in mice have been used to evaluate the in vivo therapeutic activity of Compound 10. These infections are produced by the intraperitoneal injection of standard cultures suspended in hog gastric mucin. Treatment was initiated 0.5 hours after inoculation with the infecting organism and two subsequent doses administered at 4 and 24 hours after inoculation. Efficacy was measured in PD50 values, the dose of the drug in mg/kg required to protect 50% of the treated mice against otherwise lethal infections. These values were calculated based on the number of mice surviving a 4 day post-treatment holding period. The drugs were administered both orally (po) and subcutaneously (sc). The range quoted indicates the 95% confidence level for the PD50.

The test system of the next data set is E. Coli 51A266. Nature of the data set: acute systemic infection in mice, PD50. Type of data set: in vivo. To be noted: Escherichia coli, 0.5, 4 and 24 h after inoculation, ± is 95% confidence. How it is done:
as §1

The subject of the next data set is Past. multi. 59A006. Nature of the data set: acute systemic infection in mice, PD50. Type of data set: in vivo. To be noted: Mus musculus, 0.5, 4 and 24 h after inoculation, ± is 95% confidence. How it is done:
as §1

Another data set deals with salmonellosis. Nature of the data set: prophylaxis of induced salmonellosis. Type of data set: in vivo, swine. Conditions: 50 ppm in feed. From the text: (§2) In the prophylaxis of two induced diseases, swine dysentery and salmonellosis, excellent results have been obtained. […] In the salmonellosis model, 20 percent of the nonmedicated animals died and 50 percent of the survivors were unthrifty.

Data set [1] can be described thus: tolerance and pathological examination in swine. It counts as in vivo.
In a further data set the test system is Treponema hyodysenteriae. Briefly: MIC against Treponema hyodysenteriae on bovine blood/tryptose agar. It counts as cell-based. To be noted: about 5% bovine blood, about 3% tryptose agar, unit assumed. How it is done:
MIC's against Treponema hyodysenteriae were determined by spreading appropriate dilutions of the microorganism on a growth medium containing about 5% bovine blood and about 3% tryptose agar.

A further data set is described as follows: feed efficiency of swine. To be noted: 50 ppm in feed. It counts as in vivo.
Another data set relates to swine dysentery. Nature of the data set: prophylaxis of induced swine dysentery. It counts as in vivo. Conditions: 25 ppm or 50 ppm in feed.
From the text: as §2

A further data set in a line: tolerance in chicks. It counts as in vivo. Conditions: 250 ppm.

≈ marks a conversion by molar mass, not a printed value.

Turning to `O=C(Cc1ccc(O)cc1)OCc1c(CO)[n+]([O-])c2ccccc2[n+]1[O-]` [Compound 6], the Primary in vitro Activity (MIC) is 12.5 µg/mL with Past. mult 59A004; 25 µg/mL with Sal. dublin 58U001; under 1.56 µg/mL with Strep. pyogen 02C203; 25 µg/mL in the data set with Sal. cholsu 58B242; 12.5 µg/mL in the data set on E. Coli 51A-266; 12.5 µg/mL in the data set on Strep. zoo 02-H001. For the same molecule, the Primary in vitro Activity (MIC) was determined as 1.56 µg/mL with Staph. aureus 01A106; 1.56 µg/mL in the data set on Staph. aureus 01A005; 12.5 µg/mL in the data set on E. Coli 51A-218; 25 µg/mL in the data set with Sal. typhim 58D011; 1.56 µg/mL in the data set on Aer. hydro 72B001; 25 µg/mL in the data set with Past. mult 59A006. In the data set with Strep. equi 021001, the Primary in vitro Activity (MIC) is under 1.56 µg/mL.
Consider `O=C(C=Cc1ccc(O)cc1)OCc1c(CO)[n+]([O-])c2ccccc2[n+]1[O-]` [Compound 7], for which the Primary in vitro Activity (MIC) with Past. mult 59A004 came out at 12.5 µg/mL; in the data set with Sal. dublin 58U001, 25 µg/mL; in the data set with Strep. pyogen 02C203, 12.5 µg/mL; in the data set on Sal. cholsu 58B242, 25 µg/mL; in the data set on E. Coli 51A-266, 12.5 µg/mL; in the data set on Strep. zoo 02-H001 it was 50 µg/mL. The Primary in vitro Activity (MIC) worked out at 6.25 µg/mL with Staph. aureus 01A106; 6.25 µg/mL in the data set with Staph. aureus 01A005; 12.5 µg/mL in the data set with E. Coli 51A-218; 12.5 µg/mL in the data set with Sal. typhim 58D011; 1.56 µg/mL with Aer. hydro 72B001; 25 µg/mL in the data set on Past. mult 59A006. Besides, in the data set on Strep. equi 021001, the Primary in vitro Activity (MIC) is 0.78 µg/mL.
Consider `O=C(CCc1ccc(O)cc1)OCc1c[n+]([O-])c2ccccc2[n+]1[O-]` [Compound 8], for which the Primary in vitro Activity (MIC) in the data set on Past. mult 59A004 was under 100 µg/mL; in the data set on Sal. dublin 58U001 it was 100 µg/mL; in the data set with Strep. pyogen 02C203 it was 6.25 µg/mL; in the data set on Sal. cholsu 58B242, 50 µg/mL; in the data set on E. Coli 51A-266, 100 µg/mL; with Strep. zoo 02-H001, 6.25 µg/mL. Further, the Primary in vitro Activity (MIC) with Staph. aureus 01A106 is 12.5 µg/mL; in the data set with Staph. aureus 01A005, 12.5 µg/mL; with E. Coli 51A-218 it was 50 µg/mL; with Sal. typhim 58D011, 200 µg/mL; with Aer. hydro 72B001, 6.25 µg/mL; in the data set with Past. mult 59A006, 50 µg/mL. In addition, in the data set with Strep. equi 021001, the Primary in vitro Activity (MIC) amounted to 6.25 µg/mL.
For the molecule `O=C(Cc1ccc(O)cc1)OCc1c[n+]([O-])c2ccccc2[n+]1[O-]` [Compound 9], the Primary in vitro Activity (MIC) with Past. mult 59A004 was determined as 50 µg/mL; in the data set on Sal. dublin 58U001 it was 50 µg/mL; in the data set on Strep. pyogen 02C203, 3.12 µg/mL; with Sal. cholsu 58B242 it was 12.5 µg/mL; in the data set on E. Coli 51A-266, 50 µg/mL; with Strep. zoo 02-H001, 6.25 µg/mL. Besides, the Primary in vitro Activity (MIC) in the data set with Staph. aureus 01A106 stood at 12.5 µg/mL; in the data set on Staph. aureus 01A005, 6.25 µg/mL; in the data set on E. Coli 51A-218, 25 µg/mL; in the data set with Sal. typhim 58D011 it was 25 µg/mL; in the data set with Aer. hydro 72B001, 3.12 µg/mL; in the data set on Past. mult 59A006, 12.5 µg/mL. The molecule also displayed a Primary in vitro Activity (MIC) in the data set on Strep. equi 021001 of 6.25 µg/mL.
Consider `CC(=O)c1c(COC(=O)CCc2ccc(O)cc2)[n+]([O-])c2ccccc2[n+]1[O-]` [Compound 10, 2-acetyl-3-Hydroxymethyl-Quinoxaline-1,4-Dioxide-p-Hydroxyphenylpropionic Acid Ester], for which the Primary in vitro Activity (MIC) with Past. mult 59A004 is 25 µg/mL; with Sal. dublin 58U001 it was 50 µg/mL; with Strep. pyogen 02C203, under 0.39 µg/mL; in the data set on Sal. cholsu 58B242, 50 µg/mL; in the data set with E. Coli 51A-266, 25 µg/mL; with Strep. zoo 02-H001 it was under 0.39 µg/mL. For the same molecule, the Primary in vitro Activity (MIC) is under 0.39 µg/mL with Staph. aureus 01A106; under 0.39 µg/mL with Staph. aureus 01A005; 6.25 µg/mL with E. Coli 51A-218; 12.5 µg/mL in the data set on Sal. typhim 58D011; 1.56 µg/mL in the data set with Aer. hydro 72B001; 12.5 µg/mL in the data set with Past. mult 59A006. This molecule yielded a Primary in vitro Activity (MIC) with Strep. equi 021001 of under 0.39 µg/mL. The ED50 with Sal. cholsu. 58B242 (po) is 8.4 ± 3.2 mg/kg; with Sal. cholsu. 58B242 (sc), 6.9 ± 3.1 mg/kg; in the data set with E. Coli 51A266 (po), 7.6 ± 4.7 mg/kg; with E. Coli 51A266 (sc), 13.3 ± 8.6 mg/kg; in the data set on Past. multi. 59A006 (po), 13 ± 1.6 mg/kg; with Past. multi. 59A006 (sc), 13 ± 1.6 mg/kg. Moreover, the “mortality in salmonellosis model” value with salmonellosis (nonmedicated: 20 percent died) is reported as “none of the animals on a feed containing 50 ppm of Compound 10 died”. Besides, in the data set with salmonellosis (nonmedicated: 50 percent of survivors), the “animals judged unthrifty in salmonellosis model” value amounted to 30%. Further, the tolerance in swine result in data set [1] (150 ppm) is “The same results are observed in swine”. Also, the “adverse effects on pathological examination” value in data set [1] (swine, 50 ppm in feed) is reported as “no adverse effects”. In addition, in the data set with Treponema hyodysenteriae, 0.19 µg/mL (≈ 0.497 µM) was the least that counted as inhibitory (MIC). Besides, in “feed efficiency of swine”, the “increase in feed efficiency of swine” value is recorded as 3%. The “morbidity in dysentery model” value in the data set on swine dysentery (nonmedicated: 100 percent) was “no deaths or morbidity”. Further, the “mortality in dysentery model” value with swine dysentery (nonmedicated: average 36 percent) is given as “no deaths”. In addition, in “tolerance in chicks”, the tolerance in chicks entry is given as “extremely well tolerated”.
